IC50 data for 2 molecules are collected here from ChEMBL document CHEMBL5725264, “4-(ortho)-fluorophenyl-5-fluoropyrimidin-2-yl amines containing a sulfoximine group” (2016).

A short description of experiment [1]: CDK9/CycT1 Kinase Assay: Method 1a: Recombinant full-length His-tagged human CDK9 and CycT1, expressed in insect cells and purified by Ni-NTA affinity chromatography, were purchased from Invitrogen (Cat. No PV4131). As substrate for the kinase reaction biotinylated peptide biotin-Ttds-[…] (C-terminus in amid form) was used which can be purchased e.g. form the company JERINI Peptide Technologies (Berlin, Germany).For the assay 50 nl of a 100 fold concentrated solution of the test compound in DMSO was pipetted into a black low volume 384 well microtiter plate (Greiner Bio-One, Frickenhausen, Germany), 2 ul of a solution of CDK9/CycT1 in aqueous assay buffer [50 mM Tris/HCl pH 8.0, 10 mM MgCl2, 1.0 mM dithiothreitol, 0.1 mM sodium ortho-vanadate, 0.01% (v/v) Nonidet-P40 (Sigma)] were added and the mixture was incubated for 15 min at 22° C. to allow pre-binding of the test compounds to the enzyme before the start of the kinase reaction. […] The concentration of CDK9/CycT1 was adjusted depending of the activity of the enzyme lot and was chosen appropriate to have the assay in the linear range, typical concentrations were in the range of 1 ug/ml. […].

The nature of experiment [2]: CDK2/CycE Kinase Assay: Method 2: Recombinant fusion proteins of GST and human CDK2 and of GST and human CycE, expressed in insect cells (Sf9) and purified by Glutathion-Sepharose affinity chromatography, were purchased from ProQinase GmbH (Freiburg, Germany). As substrate for the kinase reaction biotinylated peptide biotin-Ttds-[…] (C-terminus in amid form) was used which can be purchased e.g. form the company JERINI Peptide Technologies (Berlin, Germany).For the assay 50 nl of a 100 fold concentrated solution of the test compound in DMSO was pipetted into a black low volume 384 well microtiter plate (Greiner Bio-One, Frickenhausen, Germany), 2 ul of a solution of CDK2/CycE in aqueous assay buffer [50 mM Tris/HCl pH 8.0, 10 mM MgCl2, 1.0 mM dithiothreitol, 0.1 mM sodium ortho-vanadate, 0.01% (v/v) Nonidet-P40 (Sigma)] were added and the mixture was incubated for 15 min at 22° C. to allow pre-binding of the test compounds to the enzyme before the start of the kinase reaction. […] The concentration of CDK2/CycE was adjusted depending of the activity of the enzyme lot and was chosen appropriate to have the assay in the linear range, typical concentrations were in the range of 130 ng/ml. […].

Experiment [3] can be described thus: CDK9/CycT1 High ATP Kinase Assay: Method 1b: Recombinant full-length His-tagged human CDK9 and CycT1, expressed in insect cells and purified by Ni-NTA affinity chromatography, were purchase from Invitrogen (Cat. No PV4131). As substrate for the kinase reaction biotinylated peptide biotin-Ttds-[…] (C-terminus in amid form) was used which can be purchased e.g. form the company JERINI peptide technologies (Berlin, Germany).For the assay 50 nl of a 100 fold concentrated solution of the test compound in DMSO was pipetted into a black low volume 384 well microtiter plate (Greiner Bio-One, Frickenhausen, Germany), 2 ul of a solution of CDK9/CycT1 in aqueous assay buffer [50 mM Tris/HCl pH 8.0, 10 mM MgCl2, 1.0 mM dithiothreitol, 0.1 mM sodium ortho-vanadate, 0.01% (v/v) Nonidet-P40 (Sigma)] were added and the mixture was incubated for 15 min at 22° C. to allow pre-binding of the test compounds to the enzyme before the start of the kinase reaction. […] The concentration of CDK9/CycT1 was adjusted depending of the activity of the enzyme lot and was chosen appropriate to have the assay in the linear range, typical concentrations were in the range of 0.5 ug/ml. […].

A word on the IC50: it is the midpoint of a concentration-inhibition curve.

Each structure is given as a SMILES string.

Take `C[S@@](=N)(=O)Cc1cc(Nc2ncc(F)c(-c3ccc(F)cc3F)n2)cc(C(F)(F)F)c1`: the IC50 in experiment [1] stood at 11 nM; in experiment [2], 780 nM; in experiment [3], 235 nM.
As to `C[S@](=N)(=O)Cc1cc(Nc2ncc(F)c(-c3ccc(F)cc3F)n2)cc(C(F)(F)F)c1`, the IC50 was determined as 13 nM in experiment [1], 630 nM in experiment [2] and 231 nM in experiment [3].
